Patent publication US20180186742A1, “PICOLINAMIDES AS FUNGICIDES” (Dow AgroSciences LLC, priority 2017, published 2018)
Where two headings read alike, the source gives them in different places.

Legend:
Format in all cases: in vivo
Phakopsora pachyrhizi = experiment: Asian soybean rust (PHAKPA), disease control on soybean seedlings; settings: High volume application at 25 ppm
Experimental: Technical grades of materials were dissolved in acetone, which were then mixed with nine volumes of water containing 0.011% Tween 20. The fungicide solutions were applied onto soybean seedlings using an automated booth sprayer to run-off. All sprayed plants were allowed to air dry prior to further handling.
Soybean plants (variety Williams 82) were grown in soil-less Metro mix, with one plant per pot. Two week old seedlings were used for testing. Plants were inoculated either 3 days prior to or 1 day after fungicide treatments. Plants were incubated for 24 h in a dark dew room at 22° C. and 100% relative humidity then transferred to a growth room at 23° C. for disease to develop. Disease severity was assessed on the sprayed leaves.

Puccinia triticina = experiment: Wheat brown rust (PUCCRT), disease control on wheat seedlings; settings: for pest or weed control at 121.5 g/ha: low volume application at 121.5 g/H; for pest or weed control at 100 ppm: high volume application at 100 ppm
How it was run: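 Compounds in acetone, diluted with nine volumes of water containing 110 ppm Triton X-100, sprayed to run-off on first-leaf Yuma wheat seedlings; track-spray tests used EC formulations with 0.1% Trycol 5941. Puccinia triticina spores applied before or after treatment. Overnight dark dew room at 22° C, 100% humidity, then greenhouse at 24° C.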

Zymoseptoria tritici = experiment: Leaf blotch of wheat (SEPTTR), disease control on wheat seedlings; settings: for pest or weed control at 121.5 g/ha: low volume application at 121.5 g/H; for pest or weed control at 100 ppm: high volume application at 100 ppm
How it was run: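 Z. tritici spores were inoculated onto wheat seedlings (Yuma, first leaf emerged) either before or after treatment. Treatment was an automated spray to run-off of acetone/Triton X-100 water solutions, or a track spray of EC formulations with 0.1% Trycol 5941. Plants were held in dew chambers at 20 °C and then a greenhouse at 20 °C. First-leaf severity (0–100%) was converted to percent control against untreated plants.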

[1] = 24 h, 1 Day Protectant, read-out: PHAKPA 1DP disease control rating
[2] = 72 h, 3 Day Curative, read-out: PHAKPA 3DC disease control rating
[3] = 24 h, 1 Day Protectant, read-out: PUCCRT disease control, 1DP, LV activity
[4] = 72 h, 3 Day Curative, read-out: PUCCRT disease control, 3DC, LV activity
[5] = 24 h, 1 Day Protectant, read-out: SEPTTR disease control, 1DP, LV activity
[6] = 72 h, 3 Day Curative, read-out: SEPTTR disease control, 3DC, LV activity
[7] = 24 h, 1 Day Protectant, read-out: PUCCRT disease control, 1DP, HV activity
[8] = 72 h, 3 Day Curative, read-out: PUCCRT disease control, 3DC, HV activity
[9] = 24 h, 1 Day Protectant, read-out: SEPTTR disease control, 1DP, HV activity
[10] = 72 h, 3 Day Curative, read-out: SEPTTR disease control, 3DC, HV activity

SMILES	pest or weed control at 25 ppm (Phakopsora pachyrhizi; [1]) [%]	pest or weed control at 25 ppm (Phakopsora pachyrhizi; [2]) [%]	pest or weed control at 121.5 g/ha (Puccinia triticina; [3]) [%]	pest or weed control at 121.5 g/ha (Puccinia triticina; [4]) [%]	pest or weed control at 121.5 g/ha (Zymoseptoria tritici; [5]) [%]	pest or weed control at 121.5 g/ha (Zymoseptoria tritici; [6]) [%]	pest or weed control at 100 ppm (Puccinia triticina; [7]) [%]	pest or weed control at 100 ppm (Puccinia triticina; [8]) [%]	pest or weed control at 100 ppm (Zymoseptoria tritici; [9]) [%]	pest or weed control at 100 ppm (Zymoseptoria tritici; [10]) [%]
COc1ccnc(C(=O)N[C@@H](C)C(=O)O[C@@H](C)[C@H](c2ccc(F)cc2C)C2CCC2)c1OCOC(C)=O [Compound 197]	> 80	> 80	> 80	> 80	> 80	> 80				
COc1ccnc(C(=O)N[C@@H](C)C(=O)O[C@H](C)[C@H](c2ccc(F)cc2C)C2CCCC2)c1OCOC(C)=O [Compound 198]	< 80	< 80	< 80	< 0	< 80	< 80				
COc1ccnc(C(=O)N[C@@H](C)C(=O)O[C@H](C)[C@H](c2ccc(F)cc2C)C2CCCCC2)c1OCOC(C)=O [Compound 199]	< 80	< 80	< 80	< 0	> 80	< 80				
COc1ccnc(C(=O)N[C@@H](C)C(=O)O[C@@H](C)[C@@H](c2ccc(C)cc2C)C(C)C)c1OC(C)=O [Compound 200]	< 80	< 0	< 80	< 80	< 0	< 80				
COc1ccnc(C(=O)N[C@@H](C)C(=O)O[C@@H](C)[C@@H](c2ccc(C)cc2C)C2CCCC2)c1OC(C)=O [Compound 201]	< 80	< 0	> 80	< 80	< 80	< 80				
COc1ccnc(C(=O)N[C@@H](C)C(=O)O[C@@H](C)[C@@H](c2ccc(C)cc2C)C2CCCCC2)c1OC(C)=O [Compound 202]	< 80	< 0	> 80	< 0	< 80	< 80				
CCC(C)[C@H](c1ccc(C)cc1C)[C@H](C)OC(=O)[C@H](C)NC(=O)c1nccc(OC)c1OC(C)=O (some centres unmarked) [Compound 203]	> 80	< 0	< 80	< 80	< 80	< 80				
COc1ccnc(C(=O)N[C@@H](C)C(=O)O[C@@H](C)[C@@H](c2ccc(C)cc2C)C(C)C)c1OCOC(C)=O [Compound 204]	< 80	< 0	> 80	< 80	< 0	< 80				
COc1ccnc(C(=O)N[C@@H](C)C(=O)O[C@@H](C)[C@@H](c2ccc(C)cc2C)C2CCCC2)c1OCOC(C)=O [Compound 205]	< 80	< 0	> 80	< 0	< 80	< 80				
COc1ccnc(C(=O)N[C@@H](C)C(=O)O[C@@H](C)[C@@H](c2ccc(C)cc2C)C2CCCCC2)c1OCOC(C)=O [Compound 206]	< 80	< 0	< 80	< 0	< 80	< 80				
CCC(C)[C@H](c1ccc(C)cc1C)[C@H](C)OC(=O)[C@H](C)NC(=O)c1nccc(OC)c1OCOC(C)=O (some centres unmarked) [Compound 207]	> 80	< 0	> 80	< 80	< 80	> 80				
COc1ccnc2c(=O)n([C@@H](C)C(=O)O[C@@H](C)[C@@H](c3ccc(C)cc3C)C(C)C)c(=O)oc12 [Compound 208]	< 80	< 0	< 80	< 80	< 0	< 80				
COc1ccnc2c(=O)n([C@@H](C)C(=O)O[C@@H](C)[C@@H](c3ccc(C)cc3C)C3CCCC3)c(=O)oc12 [Compound 209]	< 80	< 0	< 0	< 0	< 80	< 80				
COc1ccnc2c(=O)n([C@@H](C)C(=O)O[C@@H](C)[C@@H](c3ccc(C)cc3C)C3CCCCC3)c(=O)oc12 [Compound 210]	< 80	< 80	< 80	< 0	> 80	< 80				
COc1cc[n+]([O-])c(C(=O)N[C@@H](C)C(=O)O[C@@H](C)[C@@H](c2ccc(C)cc2C)C(C)C)c1O [Compound 211]	< 80	< 0	< 0	< 0	< 80	< 0	< 80	< 0	< 80	< 80
COc1cc[n+]([O-])c(C(=O)N[C@@H](C)C(=O)O[C@@H](C)[C@@H](c2ccc(C)cc2C)C2CCCC2)c1O [Compound 212]	< 80	< 80	< 80	< 0	< 0	< 0	> 80	< 80	< 80	> 80
CCC(C)[C@H](c1ccc(C)cc1C)[C@H](C)OC(=O)[C@H](C)NC(=O)c1c(O)c(OC)cc[n+]1[O-] (some centres unmarked) [Compound 213]	< 0	< 0	< 80	< 0	< 80	< 80				
COc1ccnc(C(=O)N[C@@H](C)C(=O)O[C@@H](C)[C@H](c2ccc(F)cc2)C(C)C)c1OC(C)=O [Compound 214]	> 80	< 80	> 80	> 80	> 80	> 80				
COc1ccnc(C(=O)N[C@@H](C)C(=O)O[C@@H](C)[C@H](c2ccc(F)cc2C)C(C)C)c1OCOC(C)=O [Compound 215]	> 80	> 80	> 80	> 80	> 80	> 80				
COc1cc(F)ccc1[C@@H](C(C)C)[C@H](C)OC(=O)[C@H](C)NC(=O)c1nccc(OC)c1OC(C)=O [Compound 221]	< 80	< 80	< 80	< 80	< 80	> 80				
CCC(CC)[C@H](c1ccc(F)cc1OC)[C@H](C)OC(=O)[C@H](C)NC(=O)c1nccc(OC)c1OC(C)=O [Compound 222]	> 80	< 80	> 80	< 80	> 80	> 80				
COc1cc(F)ccc1[C@@H](C1CCCCC1)[C@H](C)OC(=O)[C@H](C)NC(=O)c1nccc(OC)c1OC(C)=O [Compound 223]	< 80	< 0	< 80	< 80	> 80	> 80				
